Measurements: ChEMBL document CHEMBL1139581, “BCUT descriptors to predicting affinity toward A3 adenosine receptors” (Bioorg Med Chem Lett, 2005)

Target: T1, Adenosine receptor A3 (Rattus norvegicus, UniProt P28647)
T1 sequence (P28647 whole entry): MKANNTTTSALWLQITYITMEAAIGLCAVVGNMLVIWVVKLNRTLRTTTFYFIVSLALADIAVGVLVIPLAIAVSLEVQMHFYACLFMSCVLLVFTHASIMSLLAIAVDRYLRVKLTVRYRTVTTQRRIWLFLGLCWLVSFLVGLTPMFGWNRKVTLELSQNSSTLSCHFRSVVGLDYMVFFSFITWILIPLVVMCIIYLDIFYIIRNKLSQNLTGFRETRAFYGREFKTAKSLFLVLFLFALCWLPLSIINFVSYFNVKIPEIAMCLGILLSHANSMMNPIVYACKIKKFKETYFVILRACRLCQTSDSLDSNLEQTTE
Test: Displacement of radioligand [125I]AB-MECA binding at rat A3 receptor expressed in CHO cells
Assay type: cell-based

| Ki [nM] | Compound |
| --- | --- |
| 405 | CCNC(=O)[C@@H]1OC(n2cnc3c(NC(=O)Nc4ccc(S(=O)(=O)Nc5ncccn5)cc4)ncnc32)[C@@H](O)[C@H]1O (some centres not stated) |
| 54.1 | CCNC(=O)[C@H]1OC(n2cnc3c(NC(=O)Nc4ccc(S(=O)(=O)Nc5ccccn5)cc4)ncnc32)[C@H](O)[C@@H]1O (some centres not stated) |
